Test results reported in patent publication US8987314B2, “Amide, urea or sulfone amide linked benzothiazole inhibitors of endothelial lipase” (Bristol-Myers Squibb Company, priority 2012, dated 2015).
Read-outs that look alike come from different tables or passages of the source.

Assays:
hepatic lipase (HL) = hepatic lipase (HL) (Homo sapiens (Human), UniProt P11150); test: HL assay: hepatic lipase activity with fluorescent substrate A10070 in DMPG vesicles; format: biochemical
Summary of the method: (§1)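 Vesicles prepared: A10070 dried with DMPG, resuspended in HEPES pH 8.0/NaCl/EDTA, sonicated on ice. Enzyme incubated with compound 30 min at 37° C. Reaction started with 1:10 diluted vesicles. Fluorescence (490/530 nm) followed 60 min; slope from 300–900 secs gives rate.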

Endothelial lipase (EL) = Endothelial lipase (EL) (Homo sapiens (Human), UniProt Q9Y5X9); test: EL assay: endothelial lipase activity with fluorescent substrate A10070 in DMPG vesicles; format: biochemical
Endothelial lipase (EL), sequence (Q9Y5X9 21-500): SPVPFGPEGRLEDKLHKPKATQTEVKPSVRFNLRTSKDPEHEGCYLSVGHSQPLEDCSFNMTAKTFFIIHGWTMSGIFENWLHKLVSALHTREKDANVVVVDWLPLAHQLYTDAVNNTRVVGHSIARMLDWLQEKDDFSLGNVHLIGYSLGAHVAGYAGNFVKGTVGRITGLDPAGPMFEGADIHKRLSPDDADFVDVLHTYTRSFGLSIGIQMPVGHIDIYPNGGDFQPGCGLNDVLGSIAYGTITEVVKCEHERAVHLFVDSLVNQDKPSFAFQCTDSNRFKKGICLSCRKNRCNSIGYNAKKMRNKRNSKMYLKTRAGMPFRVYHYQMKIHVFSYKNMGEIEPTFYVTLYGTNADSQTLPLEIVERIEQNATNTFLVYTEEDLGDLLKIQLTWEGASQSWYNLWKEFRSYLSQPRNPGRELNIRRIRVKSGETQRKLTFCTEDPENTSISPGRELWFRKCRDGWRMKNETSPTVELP
Summary of the method: as §1

[1] = HL partially purified from conditioned media of COS cells, 30 min incubation with compound at 37° C., A10070/DMPG vesicles
[2] = EL from conditioned media of HT-1080 cells, 30 min incubation with compound at 37° C., A10070/DMPG vesicles

hepatic lipase (HL), sequence (P11150 23-499, species assumed): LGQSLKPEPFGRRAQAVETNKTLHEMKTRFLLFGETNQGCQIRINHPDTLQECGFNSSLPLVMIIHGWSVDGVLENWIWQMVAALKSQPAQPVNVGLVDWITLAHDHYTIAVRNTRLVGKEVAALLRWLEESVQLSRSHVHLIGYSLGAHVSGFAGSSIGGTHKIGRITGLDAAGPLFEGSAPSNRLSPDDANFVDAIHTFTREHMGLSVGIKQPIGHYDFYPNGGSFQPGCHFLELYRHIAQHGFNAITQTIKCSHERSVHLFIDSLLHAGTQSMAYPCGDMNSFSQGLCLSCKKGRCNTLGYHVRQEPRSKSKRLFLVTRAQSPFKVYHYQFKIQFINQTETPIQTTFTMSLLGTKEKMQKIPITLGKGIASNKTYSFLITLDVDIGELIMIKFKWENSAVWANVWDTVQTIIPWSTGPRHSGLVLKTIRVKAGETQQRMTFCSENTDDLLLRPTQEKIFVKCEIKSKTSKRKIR

Compound	IC50 (hepatic lipase (HL)) [nM]	IC50 (Endothelial lipase (EL)) [nM]	IC50 (hepatic lipase (HL); [1]) [nM]	IC50 (Endothelial lipase (EL); [2]) [nM]
CS(=O)(=O)C(C(=O)NCCS(N)(=O)=O)c1nc2ccc(-c3ccnc(O)c3F)cc2s1 (stereo not drawn) [Example B193, 2-[6-(3-fluoro-2-hydroxy-4-pyridinyl)-1,3-benzothiazol-2-yl]-2-(methylsulfonyl)-N-(2-sulfamoylethyl)acetamide]	238	0.5		
CC(C)c1cc(CNC(=O)c2ccc3nc(C(C(=O)NCCS(N)(=O)=O)S(=O)(=O)CCC(F)(F)F)sc3c2)on1 (stereo not drawn) [Example B199, N-((3-isopropyl-5-isoxazolyl)methyl)-2-(2-oxo-2-((2-sulfamoylethyl)a-mino)-1-((3,3,3-trifluoropropyl)sulfonyl)eth-yl)-1,3-benzothiazole-6-carboxamide]	3670	166		
Cc1cc(CNC(=O)C(c2nc3ccc(-c4ccccc4)cc3s2)S(C)(=O)=O)on1 (stereo not drawn) [Example B233]	3.6	31.6		
NS(=O)(=O)CCNC(=O)C(c1nc2ccc(Br)cc2s1)S(=O)(=O)CCC(F)(F)F (stereo not drawn) [Example B125, 2-(6-bromo-1,3-benzothiazol-2-yl)-N-(2-sulfamoylethyl)-2-((3,3,3-trifluoropropyl)sulfonyl)a-cetamide]	300	99		
CN(C)C(=O)c1ccc(-c2ccc3nc(C(C(=O)NCCS(N)(=O)=O)S(=O)(=O)CCC(F)(F)F)sc3c2)cc1F (stereo not drawn) [Example B230, 2-fluoro-N,N-dimethyl-4-(2-{[(2-sulfamoylethyl)car-bamoyl](3,3,3-trifluoro-propanesulfonyl)meth-yl}-1,3-benzothiazol-6-yl)benzamide]	37.4	4.6		
COc1ccc(CN(Cc2ccc(OC)cc2)S(=O)(=O)CCNC(=O)C(c2nc3ccc(-c4ccccc4)cc3s2)S(C)(=O)=O)cc1 (stereo not drawn) [Example B121, N-(2-(bis(4-methoxybenzyl)sulfamoyl)eth-yl)-2-(methylsulfonyl)-2-(6-phenyl-1,3-benzothiazol-2-yl)a-cetamide]	11	80		
NS(=O)(=O)CCNC(=O)C(c1nc2ccc(-c3cncnc3)cc2s1)S(=O)(=O)Cc1ccccc1 (stereo not drawn) [Example B140, 2-(benzylsulfonyl)-2-(6-(5-pyrimidinyl)-1,3-benzothiazol-2-yl)-N-(2-sulfamoylethyl)acetamide]	8790	13.7		
CC(C)(C)OC(=O)N1CCC(n2cc(-c3ccc4nc(C(C(=O)NCCS(N)(=O)=O)S(C)(=O)=O)sc4c3)cn2)CC1 (stereo not drawn) [Example B76, tert-butyl 4-(4-(2-(1-(methylsulfonyl)-2-oxo-2-((2-sulfamoyl-ethyl)amino)ethyl)-1,3-benzothiazol-6-yl)-1H-pyrazol-1-yl)-1-piperidinecarboxylate]	21	< 10		
CS(=O)(=O)C(C(=O)NCCS(N)(=O)=O)c1nc2ccc(-c3ccc(C(=O)O)cc3)cc2s1 (stereo not drawn) [Example B173, 4-(2-(1-(Methylsulfonyl)-2-oxo-2-(2-sulfamoylethylamino)ethyl)benzo[d]thiazol-6-yl)benzoic acid]			274	< 10
NS(=O)(=O)CCNC(=O)C(c1nc2ccc(-c3ccc(C(=O)N4CCCCC4)cc3)cc2s1)S(=O)(=O)Cc1ccccc1 (stereo not drawn) [Example B351, 2-phenylmethanesulfonyl-2-{6-[4-(piperidine-1-carbonyl)phenyl]-1,3-benzothiazol-2-yl}-N-(2-sulfamoylethyl)acetamide]	14.9	6.2		
CS(=O)(=O)C(C(=O)NCCS(N)(=O)=O)c1nc2ccc(-c3cccc(Cl)c3)cc2s1 (stereo not drawn) [Example B208, 2-[6-(3-chlorophenyl)-1,3-benzothiazol-2-yl]-2-methanesulfonyl-N-(2-sulfamoylethyl)acetamide]	0.8	0.8		
NS(=O)(=O)CCNC(=O)C(c1nc2ccc(C(=O)N3CCC(F)(F)C3)cc2s1)S(=O)(=O)CCC(F)(F)F (stereo not drawn) [Example B197, 2-(6-(3,3-Difluoropyrrolidine-1-carbonyl)benzo[d]thiazol-2-yl)-N-(2-sulfamoylethyl)-2-((3,3,3-trifluoropropyl)sulfonyl)acetamide]			10100	< 10
CS(=O)(=O)C(C(=O)NCCS(N)(=O)=O)c1nc2ccc(-c3cnn(-c4ccc(F)cc4)c3)cc2s1 (stereo not drawn) [Example B74, 2-(6-(1-(4-fluorophenyl)-1H-pyrazol-4-yl)-1,3-benzothiazol-2-yl)-2-(methylsulfonyl)-N-(2-sulfamoylethyl)acetamide]	< 10	< 10		
NS(=O)(=O)CCNC(=O)C(c1nc2ccc(C(=O)N3CC(F)(F)C3)cc2s1)S(=O)(=O)CCC(F)(F)F (stereo not drawn) [Example B200, 2-(6-((3,3-difluoro-1-azetidinyl)carbonyl)-1,3-benzothiazol-2-yl)-N-(2-sulfamoylethyl)-2-((3,3,3-trifluoropropyl)sulfonyl)a-cetamide]	10000	26		
NS(=O)(=O)CCNC(=O)C(c1nc2ccc(-c3ccc4c(c3)CNC4=O)cc2s1)S(=O)(=O)Cc1ccc(OC(F)(F)F)cc1 (stereo not drawn) [Example B303, 2-[6-(1-oxo-2,3-dihydro-1H-isoindol-5-yl)-1,3-benzothiazol-2-yl]-N-(2-sulfamoylethyl)-2-{[4-(trifluoromethoxy)phen-yl]methanesulfonyl)a-cetamide]	51.2	2.5		
COC1CN(C(=O)c2ccc(-c3ccc4nc(C(C(=O)NCCS(N)(=O)=O)S(=O)(=O)Cc5ccc(OC(F)(F)F)cc5)sc4c3)cc2)C1 (stereo not drawn) [Example B300, 2-{6-[4-(3-methoxy-azetidine-1-carbonyl)phen-yl]-1,3-benzothiazol-2-yl}-N-(2-sulfamoyl-ethyl)-2-{[4-(trifluoro-methoxy)phenyl]methane-sulfonyl}acetamide]	85.1	5.5		
COCCNC(=O)c1ccc(-c2ccc3nc(C(C(=O)NCCS(N)(=O)=O)S(=O)(=O)Cc4cccc(F)c4)sc3c2)cc1 (stereo not drawn) [Example B117, 4-(2-(1-((3-fluorobenzyl)sulfonyl)-2-oxo-2-((2-sulfamoylethyl)a-mino)ethyl)-1,3-benzothiazol-6-yl)-N-(2-methoxyethyl)benzamide]	176	< 10		
COCCNC(=O)c1cccc(-c2ccc3nc(C(C(=O)NCCS(N)(=O)=O)S(=O)(=O)CCC(F)(F)F)sc3c2)c1 (stereo not drawn) [Example B179, N-(2-Methoxyethyl)-3-(2-(2-oxo-2-((2-sulfamoyl-ethyl)amino)-1-((3,3,3-trifluoropropyl)sulfonyl)eth-yl)benzo[d]thiazol-6-yl)benzamide]	170	24		
NS(=O)(=O)CCNC(=O)C(c1nc2ccc(-c3ccc(C(=O)N4CCOCC4)cc3)cc2s1)S(=O)(=O)CC1CC1 (stereo not drawn) [Example B111, 2-((cyclopropylmethyl)sul-fonyl)-2-(6-(4-(4-morpholinylcarbonyl)phen-yl)-1,3-benzothiazol-2-yl)-N-(2-sulfamoylethyl)a-cetamide]	1460	< 10		
COCCn1ccc(-c2ccc3nc(C(C(=O)NCCS(N)(=O)=O)S(=O)(=O)Cc4ccc(C(F)(F)F)cc4)sc3c2)cc1=O (stereo not drawn) [Example B367, 2-{6-[1-(2-methoxyethyl)-2-oxo-1,2-dihydropyridin-4-yl]-1,3-benzothiazol-2-yl}-N-(2-sulfamoylethyl)-2-{[4-(trifluoromethyl)phen-yl]methanesulfonyl}a-cetamide]	2210	13.5		
2-[6-(3-fluoro-2-hydroxy- pyridin-4-yl)-1,3- benzothiazol-2-yl]-N-(2- sulfamoylethyl)-2-{[4- (trifluoromethoxy)phen- yl]methanesulfonyl}a- cetamide [Example B376]	4700	7.1		
CC(C)Oc1ccc(-c2ccc3nc(C(C(=O)NCCS(N)(=O)=O)S(C)(=O)=O)sc3c2)cc1Cl (stereo not drawn) [Example B217, 2-{6-[3-chloro-4-(propan-2-yloxy)phenyl]-1,3-benzothiazol-2-yl}-2-methanesulfonyl-N-(2-sulfamoylethyl)acetamide]	3.6	2.3		
Cc1nnc(CNC(=O)C(c2nc3cc(C)c(-c4ccc5c(c4)CCC(=O)N5)cc3s2)S(C)(=O)=O)o1 (stereo not drawn) [Example B85, N-((5-methyl-1,3,4-oxadiazol-2-yl)methyl)-2-(5-methyl-6-(2-oxo-1,2,3,4-tetrahydro-6-quinolinyl)-1,3-benzothiazol-2-yl)-2-(methylsulfonyl)acetamide]	124	11		
CC(C)CS(=O)(=O)C(C(=O)NCCS(N)(=O)=O)c1nc2ccc(-c3ccccc3)cc2s1 (stereo not drawn) [Example B106, 2-(isobutylsulfonyl)-2-(6-phenyl-1,3-benzothiazol-2-yl)-N-(2-sulfamoylethyl)a-cetamide]	< 10	< 10		
CC(C)(O)CNC(=O)c1ccc(-c2ccc3nc(C(C(=O)NCCS(N)(=O)=O)S(=O)(=O)Cc4ccc(F)cc4)sc3c2)cc1 (stereo not drawn) [Example B242, 4-{2-[(4-fluorophenyl)meth-anesulfonyl[(2-sulfa-moylethyl)carbamoyl]meth-yl]-1,3-benzothiazol-6-yl}-N-(2-hydroxy-2-methylpropyl)benzamide]	109	2.7		
CS(=O)(=O)C(C(=O)NCCS(N)(=O)=O)c1nc2cc(-c3ncccn3)ccc2s1 (stereo not drawn) [Example B374, 2-methanesulfonyl-2-[5-(pyrimidin-2-yl)-1,3-benzothiazol-2-yl]-N-(2-sulfamoylethyl)acetamide]	23.7	0.8		
Cc1cc2nc(C(C(=O)NCCS(N)(=O)=O)S(=O)(=O)Cc3ccccc3)sc2cc1-c1ccc(C(=O)OC(C)(C)C)cc1 (stereo not drawn) [Example B273, tert-butyl 4-(5-methyl-2-{phenylmethanesulfonyl[(2-sulfamoylethyl)car-bamoyl]methyl}-1,3-benzothiazol-6-yl)benzoate]	3	1.4		
